This note sets out measurements from ChEMBL document CHEMBL4196219, “Rare Thioglycosides from the Roots of Wasabia japonica” (J Nat Prod, 2018).

SMILES strings stand for the structures.

The experiment concerns BV-2. Nature of the experiment: Antiinflammatory activity in mouse BV2 cells assessed as inhibition of LPS-induced nitric oxide production after 24 hrs by Griess reagent based assay. The class given is functional, cell-based. Particulars: BV-2, 24 h. On the technique in general: Griess reagent forms a coloured azo dye with nitrite.

One may read the IC50 as the point on the concentration scale where inhibition reaches its midpoint. For the molecule `C[C@@H]1CSS[C@@H]2O[C@H](CO)[C@@H](O)[C@H](O)[C@H]2OC1=O`, the IC50 is 41.2 µM.
